Reference: PubChem BioAssay AID977618 (Broad Institute, 2014)
“And” between values parts separate entries of the source, which are not always exact repeats. Equal values may be shown once. The source made the active and inactive calls.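 How the source made its calls: active means compounds lowering the cell ATP signal with fitted AC50 at most twice the top tested dose; inconclusive means flat fit between -70 and -30, or a poor fit; inactive means the rest.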

Columns and labels:
[1] = viability loss in HEK293T cells – cell-based, CellTiter-Glo luminescence, dry powder, set 16, cytotoxicity control, dose response (AID 977618); conditions: HEK293T viability, CellTiter-Glo ATP luminescence, 72 h; at 30 µM (top of the series)
[2] = test system: HEK293T viability, CellTiter-Glo ATP luminescence, 72 h; assay: as above

SMILES | activity change, negative = cytotoxicity [1] | AC50 [2]
CCN(CC)S(=O)(=O)c1ccc(N2CCCC2)c(C(=O)Nc2ncc(C)s2)c1 | -2.95% (inactive) | –
Cc1cnc(NC(=O)c2cc(S(=O)(=O)N(C)C)ccc2N2CCC2)s1 | -5.02% (inactive) | –
Cc1cnc(NC(=O)c2cc(S(=O)(=O)N(C)C)ccc2N2CCCCC2)s1 | -9.94% (inactive) | –
CN(C)S(=O)(=O)c1ccc(N2CCCC2)c(C(=O)Nc2ccccc2)c1 | -5.37% (inactive) | –
COc1ccccc1NC(=O)c1cc(S(=O)(=O)N(C)C)ccc1N1CCCC1 | -2.97% (inactive) | –
Cc1cnc(NC(=O)c2cc(S(=O)(=O)N(CC(C)C)CC(C)C)ccc2N2CCCC2)s1 | – | > 60 µM (inactive)
CN(C)S(=O)(=O)c1ccc(N2CCCC2)c(C(=O)NC2CCCCC2)c1 | -11.1% (inactive) | –
Cc1cnc(NC(=O)c2cc(S(=O)(=O)N3CCNCC3)ccc2N2CCCC2)s1 | -12.1% (inactive) | –
CN(C)C(=O)c1cc(S(=O)(=O)N(C)C)ccc1N1CCCC1 | 0.495% (inactive) | –
CN(C)S(=O)(=O)c1ccc(N2CCCC2)c(C(=O)Nc2ccccc2F)c1 | -17.6% (inactive) | –
CN(C)S(=O)(=O)c1ccc(N2CCCC2)c(C(=O)Nc2cccc(F)c2)c1 | -5.2% (inactive) | –
COc1ccc(NC(=O)c2cc(S(=O)(=O)N(C)C)ccc2N2CCCC2)cc1 | -3.02% (inactive) | –
CN(C)CCCN(Cc1cc2ccccc2[nH]c1=O)C(=O)Nc1ccccc1 | -4.05% (inactive) | –
COc1cccc2sc(NC(=O)c3cc(S(=O)(=O)N(C)C)ccc3N3CCCC3)nc12 | -4.26% (inactive) | –
CN(C)CCCN(Cc1cc2ccccc2[nH]c1=O)C(=O)NCc1ccccc1 | -7.51% (inactive) | –
CN(C)S(=O)(=O)c1ccc(N2CCCC2)c(C(=O)Nc2nccs2)c1 | -6.06% (inactive) | –
Cc1ccccc1NC(=O)c1cc(S(=O)(=O)N(C)C)ccc1N1CCCC1 | -9.68% (inactive) | –
CN(C)S(=O)(=O)c1ccc(N2CCCC2)c(C(=O)Nc2nc3ccccc3s2)c1 | 8.82% (inactive) | –
Cc1cnc(NC(=O)c2cc(S(=O)(=O)N(C)c3ccccc3)ccc2N2CCCC2)s1 | 1.78% (inactive) | –
COc1ccc2sc(NC(=O)c3cc(S(=O)(=O)N(C)C)ccc3N3CCCC3)nc2c1 | 1.94% (inactive) | –

SMILES | activity change, negative = cytotoxicity [1] | AC50 [2]
Cc1csc(NC(=O)c2cc(S(=O)(=O)N(C)C)ccc2N2CCCC2)n1 | -4.9% (inactive) | –
Cc1nc(NC(=O)c2cc(S(=O)(=O)N(C)C)ccc2N2CCCC2)n[nH]1 | -1.85% (inactive) | –
Cc1cnc(NC(=O)c2cc(S(=O)(=O)N(C)C)ccc2C2CCCC2)s1 | -1.05% (inactive) | –
CN(C)S(=O)(=O)c1ccc(N2CCCC2)c(C(=O)Nc2ccccc2Cl)c1 | -6.21% (inactive) | –
CN(C)S(=O)(=O)c1ccc(N2CCCC2)c(C(=O)Nc2cccnc2)c1 | 3.26% (inactive) | –
COc1ccc2nc(NC(=O)c3cc(S(=O)(=O)N(C)C)ccc3N3CCCC3)sc2c1 | -3.18% (inactive) | –
Cc1cnc(NC(=O)c2cc(S(=O)(=O)NCc3ccccc3)ccc2N2CCCC2)s1 | -10.3% (inactive) | –
CCN(CC)c1ccc(S(=O)(=O)N(C)C)cc1C(=O)Nc1ncc(C)s1 | -18.6% (inactive) | –
Cc1nnc(NC(=O)c2cc(S(=O)(=O)N(C)C)ccc2N2CCCC2)s1 | -7.43% (inactive) | –
Cc1cnc(NC(=O)c2cc(S(=O)(=O)N(C)C)ccc2N2CCCC2)s1 | 8.71% (inactive) and 10.8% (inactive) | –
CN(C)S(=O)(=O)c1ccc(N2CCCC2)c(C(=O)Nc2ccncc2)c1 | -8.58% (inactive) | –
Cc1cnc(NC(=O)c2cc(S(=O)(=O)N(C)C)ccc2N2CCNCC2)s1 | -1.97% (inactive) | –
Cc1cnc(NC(=O)c2cc(S(=O)(=O)N(C)C)ccc2N(C)C)s1 | -10% (inactive) | –
Cc1cnc(NC(=O)c2cc(S(=O)(=O)N3CCCCC3)ccc2N2CCCC2)s1 | 1.32% (inactive) | –
Cc1ccc(NC(=O)c2cc(S(=O)(=O)N(C)C)ccc2N2CCCC2)cc1 | -11.3% (inactive) | –
CN(C)S(=O)(=O)c1ccc(N2CCCC2)c(C(=O)Nc2ccc(Br)cc2)c1 | -1.97% (inactive) | –
Cc1cnc(NC(=O)c2cc(S(=O)(=O)N3CCCC3)ccc2N2CCCC2)s1 | 16.8% (inactive) | –
Cc1cnc(NC(=O)c2cc(S(=O)(=O)N3CCOCC3)ccc2N2CCCC2)s1 | 9.35% (inactive) | –
CN(C)S(=O)(=O)c1ccc(N2CCCC2)c(C(=O)N2CCOCC2)c1 | -15.1% (inactive) | –
Cc1cnc(NC(=O)c2cccc(S(=O)(=O)N(C)C)c2)s1 | -1.48% (inactive) | –
